Test results as given in patent US10308641B2, “Crystal form of 3-(6-(1-(2,2-difluorobenzo[d][1,3]dioxole-5-yl)cyclopropane formamido)-3-methylpyridine-2-yl)benzoic acid and preparation method thereof” (CRYSTAL PHARMATECH CO., LTD., priority 2015, dated 2019).
Converted amounts (≈) assume the structure as drawn.

What was measured:
Assay type in all cases: physicochemical
[1] = Solubility comparison, saturated solutions in SGF, FeSSIF, FaSSIF and water, by HPLC; settings: FaSSIF, FeSSIF and H2O after 1 hour, 2 hours and 24 hours
[2] = Stability assessment on storage (XRPD and purity)
Experimental: The crystalline Form A of the compound of formula (I) of the present disclosure was stored under 25° C./60% RH and 40° C./75% RH for 90 days. XRPD and purity of the samples were collected after storing for 15 days, 30 days and 90 days. […] The XRPD results of crystalline Form A before and after storing under 25° C./60% RH and 40° C./75% RH for 90 days are depicted in FIG. 7 (FIG. 7: the top, middle and bottom are initial crystalline Form A, crystalline Form A after storing at 25° C./60% RH and 40° C./75% RH for 90 days respectively).

[3] = Hygroscopicity assessment by dynamic vapor sorption (DVS); settings: for Weight Gain under 80% Relative Humidity: DVS
Experimental: Dynamic vapor sorption (DVS) data in the present disclosure was acquired by a SMS (Surface Measurement Systems Ltd.) DVS Intrinsic. About 10 mg of crystalline Form A of present disclosure was used for DVS test. The parameters of the dynamic vapor sorption (DVS) method of the present disclosure were as follows:
Gas and flow rate: N2, 200 mL/min
RH range: 0% RH to 95% RH
Maximum equilibrate time: 180 min
Humidity gradient: 10% (0% RH-90% RH), 5% (90% RH-95% RH).
About 12.2 mg of crystalline Form A of the present disclosure was used for hygroscopicity testing using dynamic vapor sorption (DVS), crystalline Form A underwent a 0-95%-0 cycle of the relative humidity (RH) change. 4. The XRPD patterns of crystalline Form A before and after hygroscopicity assessment are depicted in FIG. 6. The pattern above is before DVS and the below one is after DVS.
About hygroscopicity characterization description and definition of hygroscopicity (Chinese Pharmacopoeia 2010 edition appendix XIV Drug hygroscopic test guidelines, test at 25° C.+/−1° C., 80% Relative Humidity) • deliquescent: sufficient water is absorbed to form a liquid. • very hygroscopic: increase in mass is equal to or greater than 15%. • hygroscopic: increase in mass is less than 15% and equal to or greater than 2%. • slightly hygroscopic: increase in mass is less than 2% and equal to or greater than 0.2%. • no or almost no hygroscopic: increase in mass is less than 0.2%.

[4] = Solubility comparison, saturated solutions in SGF, FeSSIF, FaSSIF and water, by HPLC; settings: for Solubility FeSSIF: pH5.0 FeSSIF; for Solubility FaSSIF: pH6.5 FaSSIF
Experimental: Crystalline Form A of the present disclosure and Form I disclosed in CN101910156A are prepared into saturated solution in SGF (Simulated gastric fluids), pH5.0 FeSSIF (Fed state simulated intestinal fluids), pH6.5 FaSSIF (Fasted state simulated intestinal fluids) and water. Concentrations in the saturation solutions were tested after 1 hour, 4 hours and 24 hours by HPLC.

| Structure (SMILES) | Solubility H2O ([4]; H2O, 1 hour) [µg/mL] | Solubility H2O ([4]; H2O, 4 hours) [µg/mL] | Solubility SGF ([4]; 1 hour) [µg/mL] | Solubility SGF ([4]; 4 hours) [µg/mL] | Solubility SGF ([4]; 24 hours) [µg/mL] | Solubility FeSSIF ([4]; 1 hour) [µg/mL] | Solubility FeSSIF ([4]; 4 hours) [µg/mL] | Solubility FeSSIF ([4]; 24 hours) [µg/mL] | Solubility FaSSIF ([4]; 1 hour) [µg/mL] | Solubility FaSSIF ([4]; 4 hours) [µg/mL] | Solubility FaSSIF ([4]; 24 hours) [µg/mL] | further results |
| --- | --- | --- | --- | --- | --- | --- | --- | --- | --- | --- | --- | --- |
| Cc1ccc(NC(=O)C2(c3ccc4c(c3)OC(F)(F)O4)CC2)nc1-c1cccc(C(=O)O)c1 [Form A, 3-(6-(1-(2,2-difluorobenzo [d] [1,3]dioxol-5-yl)cyclopropanecarboxamido)-3-methylpyridin-2-yl) benzoic acid] | 8.6 (≈ 19 µM) | 16 (≈ 35.4 µM) | 0.9 (≈ 1.99 µM) | 1.9 (≈ 4.2 µM) | 2 (≈ 4.42 µM) | 17 (≈ 37.6 µM) | 18 (≈ 39.8 µM) | 20 (≈ 44.2 µM) | 8.2 (≈ 18.1 µM) | 11 (≈ 24.3 µM) | 9.5 (≈ 21 µM) | Solubility compared with Form I disclosed in CN101910156A [1]: higher; Stability (Purity %) 25° C./60% RH ([2]; 25° C./60% RH, 15 days): 99.94%; Stability (Purity %) 25° C./60% RH ([2]; 25° C./60% RH, 30 days): 99.90%; Stability (Purity %) 25° C./60% RH ([2]; 25° C./60% RH, 90 days): 99.93%; Stability under long-term stability condition ([2]; 25° C./60% RH, 90 days, XRPD and purity): stable; Stability (Purity %) 25° C./60% RH ([2]; 25° C./60% RH, Initial): 99.82%; Stability (Purity %) 40° C./75% RH ([2]; 40° C./75% RH, 15 days): 99.94%; Stability (Purity %) 40° C./75% RH ([2]; 40° C./75% RH, 30 days): 99.94%; Stability (Purity %) 40° C./75% RH ([2]; 40° C./75% RH, 90 days): 99.94%; Stability under accelerated stability condition ([2]; 40° C./75% RH, 90 days, XRPD and purity): stable; Stability (Purity %) 40° C./75% RH ([2]; 40° C./75% RH, Initial): 99.82%; Crystalline form after DVS test (XRPD before and after) ([3]; 0-95%-0 RH cycle): didn't change; Hygroscopicity class ([3]; Chinese Pharmacopoeia 2010 criteria, 25° C., 80% RH): non-hygroscopic or almost non-hygroscopic; Weight Gain under 80% Relative Humidity ([3]; 25° C., 80% RH, listed as Crystalline Form A of the compound of formula (I)): 0.10%; Weight Gain under 80% Relative Humidity ([3]; 25° C., 80% RH, listed as crystalline Form A of the compound of formula (I)): 0.10%; solubility at 24 h ([4]; water, thermodynamic from solid, H2O, 24 hours): 25 µg/mL (≈ 55.3 µM) |
| Cc1ccc(NC(=O)C2(c3ccc4c(c3)OC(F)(F)O4)CC2)nc1-c1cccc(C(=O)O)c1 [Form I, 3-(6-(1-(2,2-difluorobenzo [d] [1,3]dioxol-5-yl)cyclopropanecarboxamido)-3-methylpyridin-2-yl) benzoic acid, reference compound] | 2.2 (≈ 4.86 µM) | 6.7 (≈ 14.8 µM) | 0.4 (≈ 0.884 µM) | <0.22 | <0.21 | 5.5 (≈ 12.2 µM) | 5.9 (≈ 13 µM) | 5.5 (≈ 12.2 µM) | 2.3 (≈ 5.08 µM) | 1.5 (≈ 3.32 µM) | 0.9 (≈ 1.99 µM) | Solubility H2O ([4]; H2O, 24 hours): 16 µg/mL (≈ 35.4 µM) |
